Results from patent US11746370B2, “Methods and compositions for assessing and treating intraocular diseases and disorders” (SMILEBIOTEK ZHUHAI LIMITED, priority 2017, dated 2023).
“Also recorded” adds a separate entry of the source.

Key:
[1] = tested on: Bacillus megaterium; assay: Antibiotic sensitivity screening test in petri dishes, minimum inhibitory concentration (MIC) method; type: cell-based; settings: FIG. 27; for sensitivity of Bacillus megaterium / control of its growth in vitro: agar medium with antibiotic, 1*10^7 bacteria per culture, 37° C., 24 h
Procedure: The bacterial culture medium (HuanKai Microbial, Guangzhou, China) containing peptone 5 g, beef extract 3 g, NaCl 5 g, agar 15 g, and MnSO4 5 mg in 1 L ddH2O (pH=7.2) was prepared in conical flask (Drtech, Guangzhou, China) and was sterilized in the autoclave (HIRAYAMA, HEV-50, Japan) at 121° C. for 30 min. Antibiotics (ampicillin, vancomycin, neomycin, metronidazole, and tetracycline, purchased from Sigma, USA) at various concentrations were added into cooled medium. Bacillus megaterium (total 1*10^7 per culture) was cultured in the incubator (HettCube 200, Germany) at 37° C. for 24 h.
To test whether antibiotics can control the growth of Bacillus megaterium in vitro and in vivo, an antibiotic sensitivity screening test in petri dishes was carried out. The sensitivity of Bacillus megaterium to several major antimicrobial agents including Ampicillin, vancomycin, neomycin, metronidazole, and tetracycline were examined using the minimum inhibitory concentration (MIC) method.

[2] = tested on: Bacillus megaterium; assay: Bacillus megaterium subretinal inoculation model, bacteria-induced drusenoid pathology in monkey retinal tissues; type: in vivo; settings: intravitreous 0.5 mg, one injection on Day 2 post bacterial inoculation, FIG. 28
Procedure: The macaques were sedated by intramuscular injection of a mixture of tiletamine hydrochloride (2.5 mg/kg) and xolazepam hydrochloride (2.5 mg/kg). After instilling topical anesthesia (0.5% proparacaine hydrochloride), the eyes were immediately visualized in vivo using a light microscope. The pupils were then dilated with 0.5% tropicamide and 0.5% phenylephrine to obtain the fundus photographs. Then a 35 gauge anterior chamber cannula was inserted through a sclerotomy and advanced through the vitreous. Under microscopic monitoring, […] of PBS (with or without bacteria) was injected into the subretinal space between photo receptors and RPE, using a NanoFil Syringe Nanofil-100 for Microinjection (World Precision Instruments, USA). All procedures were done using sterile instruments. The macaque was euthanized 47 days post inoculation and the eyeball was enucleated for histological analyses. The eyeballs were fixed in 4% paraformaldehyde for 48 h and then embedded in paraffin. Sections were cut on a microtome at 6 μm and stained with H&E.
(§1) Next, Bacillus megaterium subretinal inoculation model was used to test whether antibiotics might be able to change the bacteria-induced drusenoid pathology in monkey retinal tissues.

[3] = Intraocular administration in monkey, ocular complications; type: in vivo; settings: data not shown
Excerpt: as §1

Compound	sensitivity of Bacillus megaterium / control of its growth in vitro [1]	size of drusenoid lesion in retinal tissue [2]	fold less effective in controlling the growth of Bacillus megaterium ([1]; compared with neomycin)	ocular complications [3]
CN[C@H](CC(C)C)C(=O)N[C@H]1C(=O)N[C@@H](CC(N)=O)C(=O)N[C@H]2C(=O)N[C@H]3C(=O)N[C@H](C(=O)N[C@H](C(=O)O)c4cc(O)cc(O)c4-c4cc3ccc4O)[C@H](O)c3ccc(c(Cl)c3)Oc3cc2cc(c3O[C@@H]2O[C@H](CO)[C@@H](O)[C@H](O)[C@H]2O[C@H]2C[C@](C)(N)[C@H](O)[C@H](C)O2)Oc2ccc(cc2Cl)[C@H]1O [vancomycin]	able to inhibit the growth	reduction in the size of drusenoid lesion	–	–
Cc1ncc([N+](=O)[O-])n1CCO [metronidazole]	–	–	10000 fold	–
neomycin	most sensitive; also recorded: best in vitro activity	–	–	significant ocular complications including ophthalmatrophia
